Assay results as given in patent US4888414A, “Insulin-binding peptides and uses thereof” (Board of Regents, University of Texas System, priority 1987, dated 1989).
Where no end group is shown, it is not given here.

Experiments:
insulin [1] = biological target: T1, insulin (Homo sapiens, UniProt P01308); assay: Binding of 125I-insulin to various immobilized peptides; settings: peptide immobilized from 5 ug/ml; 2 nM 125I-insulin
Experimental: The binding specificity of iodinated insulin for immobilized peptides was determined. Peptides of various sequences and sizes were immobilized in microtitre wells, as described in Example 1. The peptides utilized were IBP (CVEEAS) and a series of control peptide having the following designations and amino acid sequences: S28, TTHYQKG; S79, AQGHRPQDEG; S81, YGSLPQKAQGHRPQDEG; S82, THYGSLPQKAQGHRPQDEG; and EAE, FSWGAEGQR.
Peptides were dissolved in buffer at a concentration of 5 ug/ml, and immobilized in the wells of the microtitre plate. The immobilized peptides were then incubated with 2 nM ^125 I-insulin in the absence or presence of 3 uM unlabeled insulin, as described above. The specific binding of insulin to immobilized peptide is indicated, alone with the binding as a percentage of the binding of insulin to immobilized IBP. The peptides utilized are indicated on the abcissa. The respective relative binding of insulin (shown in FIG. 5) was IBP-100%, S28-0.3%, S79-1.5%, S81-0.6%, S82-0.2% and EAE-0.3%.

insulin [2] = biological target: T1, insulin; assay: Binding of 125I-insulin to immobilized IBP in microtitre wells
Experimental: Insulin Binding Peptide, synthesized by OCS Laboratories, Inc., Denton, Tex., was immobilized in the wells of flexible, U-bottom 96-well polyvinyl chloride microtitre plates (Falcon, Becton Dickinson Labware). To each well was added 100 ul of the peptide (5 ug/ml in 0.1 M sodium carbonate, pH 9.6). The peptide was allowed to adsorb to the well overnight at 4° C. Unreacted sites in the wells were blocked with 150 ul of 1% ovalbumin (Sigma Chemical Co.) in 0.1M sodium carbonate, pH 9.6, for 1 h at room temperature. The wells were washed two times with phosphate-buffered saline (PBS) containing 0.1% BSA (Fraction V, Sigma Chemical Co.), and then incubated with ^125 I-insulin in PBS, 0.1% BSA, for 3 h at room temperature. The wells were then washed 3 times with PBS-0.1% BSA, and were then excised from the plate and counted in a gamma counter. Total binding of insulin to the IBP was determined with iodinated insulin alone. Nonspecific binding was determined in the presence of radiolabeled insulin plus 3 uM unlabeled insulin. Specific binding was calculated as the difference between total and nonspecific binding. All values are reported as specific binding, unless otherwise indicated. All determinations (both total and nonspecific) were performed in triplicate. Insulin was iodinated by the method of Chloramine T, as previously described (Gavin et al., Proc. Nat. Acad. Sci., Vol. 71, p. 84-88 (1974)).
The peptide was immobilized in the bottom of 96-well microtitre plates, and at zero time, 2 nM ^125 I-insulin, in the absence or presence of 3 uM unlabeled insulin, was added to each of the wells. At the indicated times, the wells were washed with cold PBS, the washed wells were cut from the dish and counted for radioactivity. The indicated data points are average values of specifically bound insulin, and the error bars indicate the range of the data. At 25° C., the binding attained equilibrium within 1.5 h, with a half-time of approximately 20 min. At 4° C., the binding process is slightly slower, requiring approximately 2 h to attain an equilibrium level of binding.
The peptide was immobilized in the bottom of 96-well microtitre plates, and ^125 I-insulin, in the absence or presence of 3 uM unlabeled insulin, was added to the wells. Following incubation at 25° C. for 3 h, the wells were washed, cut from the dish, and counted, as described above. The indicated data points of FIG. 2 are average values of specifically bound insulin, the error bars indicate the range of the data.

[3] = Binding of iodinated polypeptide hormones to immobilized IBP; settings: 2 nM iodinated hormone; room temperature 3 h
Experimental: The specificity of the binding of IBP to insulin was determined by incubating iodinated calcitonin, parathyroid hormone or atrial naturiuretic peptide with immobilized IBP. The binding of insulin to IBP appears to be a specific process. The specific binding of the low molecular weight polypeptide hormones calcitonin, parathyroid hormone and atrial naturiuretic peptide is less than 1% of the level of the specific binding of insulin (Ins) to IBP. The insulin-binding peptide was immobilized in the bottom of 96-well microtitre plates. To the wells were then added 2 nM iodinated polypeptide hormones in the absence or presence of at least a 1000-fold excess of unlabeled hormone. Following incubation at room temperature for 3 h, the wells were washed, excised from the plate and ^125 I measured as described above. The specific binding of hormone to the wells is indicated, along with the binding as a percentage of the binding of insulin to the wells. The polypeptide hormones utilized are indicated on the abcissa: Cal, calcitonin; PTH, parathyroid hormone; ANP, atrial naturiuretic peptide; Ins, insulin.

T1 sequence (P01308 25-54 limits assumed, species assumed): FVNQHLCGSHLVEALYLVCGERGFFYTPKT
T1 sequence (P01308 90-110 partner limits assumed, species assumed): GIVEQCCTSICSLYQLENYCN

Row | relative binding of insulin to immobilized peptide, as percentage of binding to immobilized IBP (insulin [1]) [%] | specific binding to IBP as percentage of the specific binding of insulin [3] | Substance | other results
1 | 0.3 | – | FSWGAEGQR [EAE, FSWGAEGQR] | –
2 | 0.3 | – | TTHYQKG [S28, TTHYQKG] | –
3 | 1.5 | – | AQGHRPQDEG [S79, AQGHRPQDEG] | –
4 | 0.2 | – | THYGSLPQKAQGHRPQDEG [S82, THYGSLPQKAQGHRPQDEG] | –
5 | 0.6 | – | YGSLPQKAQGHRPQDEG [S81, YGSLPQKAQGHRPQDEG] | –
6 | – | – | CVEEAS [IBP, NH2 -Cys-Val-Glu-Glu-Ala-Ser-COOH] | time to attain an equilibrium level of binding (insulin [2]; 4° C., 2 nM 125I-insulin): approximately 2 h; half-time of binding (insulin [2]; 25° C., 2 nM 125I-insulin): approximately 20 min; time for binding to attain equilibrium (insulin [2]; 25° C., 2 nM 125I-insulin): ≤ 1.5 h; Kd (insulin [2]; IBP immobilized on plastic surface, 125I-insulin, 25° C. for 3 h, read-out: Kd of insulin binding to immobilized IBP (Scatchard)): 3 nM
7 | – | less than 1% | parathyroid hormone | –
8 | – | less than 1% | calcitonin | –
9 | – | less than 1% | atrial naturiuretic peptide | –
